Experimental data from ChEMBL document CHEMBL1201862, “PubChem BioAssay data set” (2004).
Active and inactive are the calls of the source.

Assays:
[1] = Counterscreen for IDE inhibitors: Luminescence-based cell-based high throughput dose response assay to identify compounds that are cytotoxic to HEK cells. [Related pubchem assays: 434962 (Primary screen (IDE inhibitors in singlicate)), 449730 (Counterscreen (Cytotoxicity in triplicate)), 435028 (Confirmation (IDE inhibitors in triplicate)) …; format: functional; conditions: HEK293
[2] = target: T1, Streptokinase A (Streptococcus pyogenes serotype M1, UniProt P10520); assay: viability-normalized secreted streptokinase activity reduction – plasminogen activation absorbance, OD405, dose response (AID 1914); format: functional, Streptococcus pyogenes M1 GAS;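 further: secreted streptokinase activity via plasminogen activation per viability signal from cell pellet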
T1 sequence (P10520 whole entry): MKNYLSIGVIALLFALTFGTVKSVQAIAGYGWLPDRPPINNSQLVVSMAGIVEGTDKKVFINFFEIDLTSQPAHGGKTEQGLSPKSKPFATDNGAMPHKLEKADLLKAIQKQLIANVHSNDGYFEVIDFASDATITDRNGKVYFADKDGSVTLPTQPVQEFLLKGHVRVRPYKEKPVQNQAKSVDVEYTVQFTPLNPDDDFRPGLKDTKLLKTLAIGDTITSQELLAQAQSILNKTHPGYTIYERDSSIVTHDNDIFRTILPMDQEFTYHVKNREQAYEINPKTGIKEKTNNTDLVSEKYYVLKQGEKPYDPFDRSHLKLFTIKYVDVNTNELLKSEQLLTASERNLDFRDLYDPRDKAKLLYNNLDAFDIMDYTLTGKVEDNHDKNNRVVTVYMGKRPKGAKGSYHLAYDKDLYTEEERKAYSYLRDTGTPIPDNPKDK

[3] = target: T2, Insulin-degrading enzyme (Homo sapiens, UniProt P14735); assay: Dose Response: Fluorescence polarization-based cell-based high throughput dose response assay for inhibitors of insulin-degrading enzyme (IDE). [Related pubchem assays: 434962 (Primary screen (IDE inhibitors in singlicate)), 449730 (Counterscreen (Cytotoxicity in triplicate)), 435028 (Confirmation (IDE inhibitors in triplicate)), 434984 (Summary …; format: functional
T2 sequence (P14735 whole entry): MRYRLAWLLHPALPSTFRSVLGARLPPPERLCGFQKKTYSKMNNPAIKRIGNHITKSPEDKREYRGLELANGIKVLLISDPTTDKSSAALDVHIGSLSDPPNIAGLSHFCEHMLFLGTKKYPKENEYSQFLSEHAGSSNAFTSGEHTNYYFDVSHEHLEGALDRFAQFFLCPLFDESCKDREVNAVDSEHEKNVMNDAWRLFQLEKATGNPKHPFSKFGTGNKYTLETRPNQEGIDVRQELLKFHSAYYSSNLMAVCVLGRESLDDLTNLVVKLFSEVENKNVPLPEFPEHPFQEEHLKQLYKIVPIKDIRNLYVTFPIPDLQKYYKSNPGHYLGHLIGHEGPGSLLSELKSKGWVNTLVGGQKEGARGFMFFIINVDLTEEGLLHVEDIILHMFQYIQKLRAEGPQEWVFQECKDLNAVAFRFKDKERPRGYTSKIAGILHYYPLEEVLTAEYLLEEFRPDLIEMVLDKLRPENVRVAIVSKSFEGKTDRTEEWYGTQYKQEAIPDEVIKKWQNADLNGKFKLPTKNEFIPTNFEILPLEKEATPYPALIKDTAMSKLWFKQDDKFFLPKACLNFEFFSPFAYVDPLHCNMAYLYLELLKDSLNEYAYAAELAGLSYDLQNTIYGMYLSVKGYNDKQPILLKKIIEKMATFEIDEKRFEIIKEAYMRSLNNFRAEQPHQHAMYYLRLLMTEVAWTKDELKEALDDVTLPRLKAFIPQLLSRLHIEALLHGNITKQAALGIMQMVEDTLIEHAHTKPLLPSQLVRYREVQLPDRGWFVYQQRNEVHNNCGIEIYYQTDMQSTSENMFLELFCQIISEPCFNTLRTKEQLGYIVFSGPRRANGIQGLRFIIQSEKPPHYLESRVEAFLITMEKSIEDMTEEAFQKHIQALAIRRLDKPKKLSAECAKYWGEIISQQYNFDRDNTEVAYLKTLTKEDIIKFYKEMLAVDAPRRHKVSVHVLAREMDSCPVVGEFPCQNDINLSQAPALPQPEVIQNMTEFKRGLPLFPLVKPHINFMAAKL

[4] = test system: Streptococcus; assay: GAS UMAA2166 growth inhibition – luminescence, BacTiterGlo, counter-screen for streptokinase expression inhibitor project, dose response (AID 1915); format: functional, organism-based;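 further: potency for reduction of bacterial viability or growth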
[5] = test system: Streptococcus sp. 'group A'; assay: Streptococcus pyogenes SK(-)GAS viability under kanamycin – luminescence, BacTiterGlo, confirmation, counter-screen for streptokinase expression inhibitor project, dose response (AID 1900); format: functional, organism-based
[6] = test system: HeLa; assay: viability loss in HeLa cells – cell-based, 24 h, cherry-picked samples, cytotoxicity control, dose response (AID 504726); format: functional; conditions: Homo sapiens;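 further: potency for cytotoxicity as loss of luminescence signal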
[7] = target: Voltage-dependent T-type calcium channel subunit alpha-1H (Homo sapiens, UniProt O95180); format: functional;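 further: channel activity triggered by adding a high calcium stimulation buffer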
Sequence of Voltage-dependent T-type calcium channel subunit alpha-1H (O95180 whole entry): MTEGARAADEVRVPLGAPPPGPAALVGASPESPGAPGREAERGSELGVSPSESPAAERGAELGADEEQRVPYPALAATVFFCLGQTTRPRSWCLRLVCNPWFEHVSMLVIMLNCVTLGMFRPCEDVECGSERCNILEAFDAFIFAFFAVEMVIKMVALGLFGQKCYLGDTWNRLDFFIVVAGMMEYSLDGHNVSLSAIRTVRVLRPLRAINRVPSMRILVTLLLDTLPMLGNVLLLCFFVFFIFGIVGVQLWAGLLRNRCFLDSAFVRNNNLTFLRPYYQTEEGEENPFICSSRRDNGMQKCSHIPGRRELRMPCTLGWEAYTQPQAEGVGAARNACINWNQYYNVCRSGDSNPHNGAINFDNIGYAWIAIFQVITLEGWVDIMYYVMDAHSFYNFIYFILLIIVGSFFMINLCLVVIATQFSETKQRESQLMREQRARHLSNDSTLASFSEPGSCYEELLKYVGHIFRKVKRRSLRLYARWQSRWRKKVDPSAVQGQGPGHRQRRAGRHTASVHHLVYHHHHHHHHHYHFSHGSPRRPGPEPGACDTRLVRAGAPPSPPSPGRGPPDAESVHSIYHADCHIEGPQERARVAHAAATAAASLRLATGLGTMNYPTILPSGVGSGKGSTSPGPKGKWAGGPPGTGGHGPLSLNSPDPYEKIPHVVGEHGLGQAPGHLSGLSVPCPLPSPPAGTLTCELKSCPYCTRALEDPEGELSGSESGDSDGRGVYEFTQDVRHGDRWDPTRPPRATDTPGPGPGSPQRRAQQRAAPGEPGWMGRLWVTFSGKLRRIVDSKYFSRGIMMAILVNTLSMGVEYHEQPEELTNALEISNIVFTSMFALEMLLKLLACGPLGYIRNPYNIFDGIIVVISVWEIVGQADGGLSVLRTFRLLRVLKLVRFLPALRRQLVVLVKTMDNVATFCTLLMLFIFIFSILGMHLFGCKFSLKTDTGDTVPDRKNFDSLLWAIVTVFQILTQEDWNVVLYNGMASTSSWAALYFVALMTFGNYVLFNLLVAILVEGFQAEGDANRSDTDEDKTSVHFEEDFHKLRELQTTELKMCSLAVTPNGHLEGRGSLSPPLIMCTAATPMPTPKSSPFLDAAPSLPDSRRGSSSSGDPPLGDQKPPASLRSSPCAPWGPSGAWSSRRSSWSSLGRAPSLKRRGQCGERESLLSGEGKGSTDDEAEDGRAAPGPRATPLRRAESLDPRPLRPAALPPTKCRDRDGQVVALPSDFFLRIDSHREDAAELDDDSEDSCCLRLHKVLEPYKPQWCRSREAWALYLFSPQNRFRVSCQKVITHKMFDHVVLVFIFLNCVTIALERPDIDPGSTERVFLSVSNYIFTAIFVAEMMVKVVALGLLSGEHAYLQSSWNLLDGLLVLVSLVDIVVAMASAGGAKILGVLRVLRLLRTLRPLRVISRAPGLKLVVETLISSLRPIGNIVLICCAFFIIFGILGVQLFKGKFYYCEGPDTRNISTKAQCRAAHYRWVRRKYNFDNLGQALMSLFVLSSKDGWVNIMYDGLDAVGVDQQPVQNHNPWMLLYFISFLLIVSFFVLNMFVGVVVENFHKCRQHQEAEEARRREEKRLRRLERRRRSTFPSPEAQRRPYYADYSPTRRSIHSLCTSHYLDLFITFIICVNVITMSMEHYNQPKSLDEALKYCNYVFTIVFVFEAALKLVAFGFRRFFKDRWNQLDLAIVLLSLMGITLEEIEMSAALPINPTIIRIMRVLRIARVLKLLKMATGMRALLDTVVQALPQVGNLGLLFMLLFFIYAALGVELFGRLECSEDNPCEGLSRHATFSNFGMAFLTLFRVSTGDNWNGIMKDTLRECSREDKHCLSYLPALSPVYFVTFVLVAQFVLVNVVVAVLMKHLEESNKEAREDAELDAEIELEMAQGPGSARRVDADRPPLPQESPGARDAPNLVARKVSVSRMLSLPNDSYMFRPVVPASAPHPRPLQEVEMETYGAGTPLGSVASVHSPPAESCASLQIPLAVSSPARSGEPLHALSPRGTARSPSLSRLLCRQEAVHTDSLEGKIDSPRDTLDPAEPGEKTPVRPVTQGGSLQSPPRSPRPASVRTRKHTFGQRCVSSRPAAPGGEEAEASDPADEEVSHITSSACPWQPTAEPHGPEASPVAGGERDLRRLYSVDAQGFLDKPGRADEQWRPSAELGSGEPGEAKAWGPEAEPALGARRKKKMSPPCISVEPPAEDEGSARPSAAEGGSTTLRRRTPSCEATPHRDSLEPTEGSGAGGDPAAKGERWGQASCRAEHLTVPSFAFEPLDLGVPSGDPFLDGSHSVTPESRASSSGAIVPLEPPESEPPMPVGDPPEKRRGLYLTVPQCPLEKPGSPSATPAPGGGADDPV

[8] = target: T3, Aspartyl aminopeptidase (Plasmodium falciparum 3D7, UniProt Q8I2J3)
T3 sequence (Q8I2J3 whole entry): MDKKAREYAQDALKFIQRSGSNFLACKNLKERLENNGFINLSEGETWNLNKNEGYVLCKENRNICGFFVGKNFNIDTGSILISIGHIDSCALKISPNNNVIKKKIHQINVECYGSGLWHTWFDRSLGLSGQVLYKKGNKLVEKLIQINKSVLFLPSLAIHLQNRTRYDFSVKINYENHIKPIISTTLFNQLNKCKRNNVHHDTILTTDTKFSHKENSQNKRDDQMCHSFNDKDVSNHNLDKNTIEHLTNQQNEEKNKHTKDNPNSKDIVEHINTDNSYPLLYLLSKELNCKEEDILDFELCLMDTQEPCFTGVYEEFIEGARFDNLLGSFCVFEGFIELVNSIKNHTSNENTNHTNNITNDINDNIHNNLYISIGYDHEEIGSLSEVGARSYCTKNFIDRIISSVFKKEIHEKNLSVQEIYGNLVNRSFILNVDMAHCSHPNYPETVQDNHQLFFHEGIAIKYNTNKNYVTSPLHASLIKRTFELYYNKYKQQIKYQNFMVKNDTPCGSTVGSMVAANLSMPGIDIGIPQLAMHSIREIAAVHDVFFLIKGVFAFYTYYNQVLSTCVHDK

[9] = target: Procathepsin L (Homo sapiens, UniProt P07711)
Sequence of Procathepsin L (P07711 whole entry): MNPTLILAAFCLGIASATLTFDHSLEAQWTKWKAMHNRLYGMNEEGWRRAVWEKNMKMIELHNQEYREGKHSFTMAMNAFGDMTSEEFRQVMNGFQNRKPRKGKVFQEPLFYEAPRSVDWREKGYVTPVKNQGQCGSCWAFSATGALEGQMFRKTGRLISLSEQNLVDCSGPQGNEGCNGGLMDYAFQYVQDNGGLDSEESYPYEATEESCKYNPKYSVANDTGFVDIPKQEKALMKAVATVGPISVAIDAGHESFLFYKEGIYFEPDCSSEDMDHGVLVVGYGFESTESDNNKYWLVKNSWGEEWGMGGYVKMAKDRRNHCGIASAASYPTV

[10] = A cytotoxicity screen of small molecule inhibitors of the PhoP region in Salmonella typhi identified in the primary screen. [Related pubchem assays: 1850, 1864, 1985 ]; format: functional
[11] = target: T4, Ubiquitin-conjugating enzyme E2 N (Homo sapiens, UniProt P61088); format: functional;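 further: Dose-response confirmation in a TR-FRET assay detecting UBC13-driven polyubiquitin chain formation, inhibition measured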
T4 sequence (P61088 whole entry): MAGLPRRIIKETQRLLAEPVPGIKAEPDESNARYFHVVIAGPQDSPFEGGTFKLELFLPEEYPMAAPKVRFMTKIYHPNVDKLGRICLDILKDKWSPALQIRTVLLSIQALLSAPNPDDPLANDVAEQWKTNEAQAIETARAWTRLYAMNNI

[12] = target: T5, Microphthalmia-associated transcription factor (Homo sapiens, UniProt O75030); assay: reducers of TRPM1 reporter luminescence, concentration series – cell-based, SK-MEL-5, cherry-picked, set 3, MITF inhibitor project, dose response (AID 493073); format: functional;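 further: SK-MEL-5 melanoma cells with luciferase driven by the MITF target TRPM1 promoter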
T5 sequence (O75030 whole entry): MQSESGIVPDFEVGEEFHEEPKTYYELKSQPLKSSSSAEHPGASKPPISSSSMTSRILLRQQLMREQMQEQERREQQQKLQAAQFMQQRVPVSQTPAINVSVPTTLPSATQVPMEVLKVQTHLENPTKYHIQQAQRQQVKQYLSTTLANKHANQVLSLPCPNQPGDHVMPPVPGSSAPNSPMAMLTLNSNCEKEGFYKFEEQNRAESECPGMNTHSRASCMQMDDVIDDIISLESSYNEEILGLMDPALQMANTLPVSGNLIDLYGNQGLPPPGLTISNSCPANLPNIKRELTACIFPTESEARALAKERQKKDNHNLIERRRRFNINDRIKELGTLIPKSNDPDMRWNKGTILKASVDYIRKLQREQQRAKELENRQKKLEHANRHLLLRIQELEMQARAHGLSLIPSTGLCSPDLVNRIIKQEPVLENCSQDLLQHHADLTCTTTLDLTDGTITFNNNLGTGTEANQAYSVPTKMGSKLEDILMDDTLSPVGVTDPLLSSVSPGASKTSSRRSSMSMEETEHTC

[13] = target: T6, Protein RecA (Mycobacterium tuberculosis, UniProt P9WHJ3); assay: Fluorescence Cell-Free Homogeneous Dose Retest to Identify Inhibitors of RecA-Intein Splicing Activity. [Related pubchem assays (depositor defined):AID2097, AID2223, AID489010, AID492950]; format: functional
T6 sequence (P9WHJ3 whole entry): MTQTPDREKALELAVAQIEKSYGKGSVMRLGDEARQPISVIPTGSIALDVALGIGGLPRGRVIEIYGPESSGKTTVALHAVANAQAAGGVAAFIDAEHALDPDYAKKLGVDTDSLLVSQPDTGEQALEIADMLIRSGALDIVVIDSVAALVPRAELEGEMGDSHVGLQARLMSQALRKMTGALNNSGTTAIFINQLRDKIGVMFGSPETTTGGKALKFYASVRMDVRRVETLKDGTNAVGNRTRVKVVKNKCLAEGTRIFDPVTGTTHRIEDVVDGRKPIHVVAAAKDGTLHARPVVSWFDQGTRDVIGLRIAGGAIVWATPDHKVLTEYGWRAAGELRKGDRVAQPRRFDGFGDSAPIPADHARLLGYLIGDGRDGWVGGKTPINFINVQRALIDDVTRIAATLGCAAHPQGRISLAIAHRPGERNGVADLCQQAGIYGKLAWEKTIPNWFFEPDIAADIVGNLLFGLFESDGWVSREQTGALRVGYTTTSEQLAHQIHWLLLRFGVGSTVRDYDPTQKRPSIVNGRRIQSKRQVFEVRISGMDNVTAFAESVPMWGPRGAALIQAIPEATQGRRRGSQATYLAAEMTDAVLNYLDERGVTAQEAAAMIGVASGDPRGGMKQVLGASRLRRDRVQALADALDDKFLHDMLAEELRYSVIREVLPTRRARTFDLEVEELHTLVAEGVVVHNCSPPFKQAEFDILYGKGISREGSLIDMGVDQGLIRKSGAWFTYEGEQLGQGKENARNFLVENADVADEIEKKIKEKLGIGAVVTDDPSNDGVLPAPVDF

[14] = target: T7, Replicative DNA helicase DnaB (Mycobacterium tuberculosis, UniProt P9WMR3); assay: DnaB intein splicing inhibitors, dose response, biochemical, cell-free fluorescence (AID 449749); format: functional
T7 sequence (P9WMR3 whole entry): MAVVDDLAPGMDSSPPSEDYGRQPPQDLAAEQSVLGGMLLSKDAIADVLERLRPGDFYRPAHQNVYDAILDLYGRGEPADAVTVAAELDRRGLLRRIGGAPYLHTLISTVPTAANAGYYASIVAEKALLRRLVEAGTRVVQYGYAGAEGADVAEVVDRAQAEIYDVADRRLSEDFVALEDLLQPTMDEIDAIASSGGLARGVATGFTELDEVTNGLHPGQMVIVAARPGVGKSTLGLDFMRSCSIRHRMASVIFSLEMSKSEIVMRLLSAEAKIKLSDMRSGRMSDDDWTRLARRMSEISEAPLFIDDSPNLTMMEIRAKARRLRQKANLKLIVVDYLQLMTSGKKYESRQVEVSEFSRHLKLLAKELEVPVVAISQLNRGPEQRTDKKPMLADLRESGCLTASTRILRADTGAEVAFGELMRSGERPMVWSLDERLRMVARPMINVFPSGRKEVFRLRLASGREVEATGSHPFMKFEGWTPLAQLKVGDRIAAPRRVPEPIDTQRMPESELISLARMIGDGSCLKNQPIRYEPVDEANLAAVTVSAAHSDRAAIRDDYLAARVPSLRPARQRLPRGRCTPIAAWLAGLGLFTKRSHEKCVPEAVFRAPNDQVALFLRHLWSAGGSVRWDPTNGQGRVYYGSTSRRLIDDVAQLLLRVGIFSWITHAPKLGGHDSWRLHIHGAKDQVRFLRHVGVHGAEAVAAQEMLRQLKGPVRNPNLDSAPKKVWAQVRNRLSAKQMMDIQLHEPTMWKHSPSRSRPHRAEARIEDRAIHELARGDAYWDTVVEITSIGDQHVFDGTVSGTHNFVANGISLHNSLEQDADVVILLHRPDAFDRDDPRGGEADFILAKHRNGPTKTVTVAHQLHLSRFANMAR

[15] = target: Peroxisome proliferator-activated receptor gamma/Nuclear receptor corepressor 2 (Homo sapiens, UniProt P37231+Q9Y618); format: functional
[16] = target: Photoreceptor-specific nuclear receptor (Homo sapiens, UniProt Q9Y5X4); format: functional;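 further: potency for compounds that break the NR2E3 corepressor complex and count as activators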
Sequence of Photoreceptor-specific nuclear receptor (Q9Y5X4 whole entry): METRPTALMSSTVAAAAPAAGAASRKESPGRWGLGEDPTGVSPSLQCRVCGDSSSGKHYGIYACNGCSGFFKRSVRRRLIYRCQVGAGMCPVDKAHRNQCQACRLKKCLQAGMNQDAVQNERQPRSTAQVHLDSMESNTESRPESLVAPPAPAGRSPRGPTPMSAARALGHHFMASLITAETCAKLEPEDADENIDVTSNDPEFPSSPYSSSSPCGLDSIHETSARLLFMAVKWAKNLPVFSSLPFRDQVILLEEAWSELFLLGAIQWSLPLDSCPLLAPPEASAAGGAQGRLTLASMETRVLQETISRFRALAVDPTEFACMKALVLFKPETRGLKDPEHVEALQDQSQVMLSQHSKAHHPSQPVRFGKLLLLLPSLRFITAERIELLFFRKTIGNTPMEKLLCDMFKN

Question: Which results are given for Cc1ccc(/C=C/C(=O)NC(=S)Nc2ccc(S(=O)(=O)Nc3cc(C)on3)cc2)cc1?
Answer: IC50 [1]: > 55.7 µM (not active); EC50 [2]: 27.1 µM (inconclusive); IC50 [3]: 9.71 µM (active); EC50 [4]: 62.4 µM (active); EC50 [5]: 9.56 µM (active)

Question: For O=C1c2ccccc2C(=O)N1Cc1ccc2c(c1)OCO2, which AC50 [6] is on record?
Answer: The AC50 was 42.5 µM (active).

Question: For O=C(Nc1ccc(S(=O)(=O)N2CCc3ccccc3C2)cc1)C1CCCO1 (configuration not stated), which EC50 [7] is on record?
Answer: Its EC50 is 3.27 µM (active).

Question: Which IC50 [8] does the source give for COc1ccc(NC(=O)NNC(=O)CCc2ccc(O)c(O)c2)cc1OC here?
Answer: The IC50 was 2.51 µM (active).

Question: And the IC50 [9]?
Answer: Its IC50 is > 59.6 µM (not active).

Question: Which results are given for Cc1cccc(N2CCN(C(=O)c3cccc(N4C(=O)C5C6C=CC(C6)C5C4=O)c3)CC2)c1C (configuration not stated)?
Answer: IC50 [1]: 17.4 µM (not active); IC50 [3]: 6.73 µM (active)

Question: For CCCCCC(=O)NC(=S)NNC(=O)CC, which EC50 [10] is on record?
Answer: Its EC50 is > 50 µM (active).

Question: For COc1cc(C(=O)Nc2ccc3c(c2)OCCO3)ccc1OC(C)C, which EC50 [10] is on record?
Answer: The EC50 was > 50 µM (active).

Question: For CN(Cc1ccccc1)C(=O)CCSc1nc(-c2ccc3c(c2)OCO3)cc(C(F)(F)F)n1, which IC50 [11] is on record?
Answer: The IC50 was > 20 µM (inactive).

Question: And the EC50 [7]?
Answer: The EC50 was 4.53 µM (active).

Question: What does the source list for CC1=NNC(=O)/C1=C\c1cn(-c2ccccc2)nc1-c1ccc(F)cc1?
Answer: AC50 [12]: 6.52 µM (active); IC50 [8]: 0.71 µM (active); EC50 [13]: 1.35 µM (active); AC50 [14]: 3.69 µM (active); IC50 [9]: > 59.6 µM (not active)

Question: With CCOc1ccccc1NC(=O)CSc1nc(N)c(C#N)cc1C#N as the molecule, how does the IC50 [15] read?
Answer: The IC50 was 3.03 µM (active).

Question: What about the IC50 [16] of the same molecule?
Answer: The IC50 was > 39.8 µM (not active).
